Structures can show the parent of a compound that is named as a salt.
Tests used:
Jurkat cell line = test: eIF2α phosphorylation immunoblot in cell lines (control); type: cell-based
Procedure: (§1) Proteins extracted from whole cell lysates (50 μg/lane) were separated on polyacrylamide gels and transferred on nitrocellulose membrane. Antibodies used for immunoblots included LC3, IRE1α, TRAF2, PI3K III, ATG4C, ATG5-12, UVRAG, Beclin-1 (Cell Signaling, Boston, Mass.), GAPDH, Nrf2, ASK1, ULK1 (Santa Cruz Biotechnology), and Bif-1, ATG14-Barkor (Sigma-Aldrich, St Louis, Mo.). Species-appropriate secondary antibodies were obtained from BioRad Laboratories (Hercules, Calif.). Following antibody incubations, proteins were detected using a chemiluminescent substrate (BioRad Laboratories). For co-immunoprecipitations, TrueBlot beads (eBiosciences, San Diego, Calif.) and One-hour IP Western kit (GenScript, Piscataway, N.J.) were used according to manufacturer protocols. Quantification was done using FluorChem Q (Alpha Innotech, San Leandro Calif.).

CLL cells [1] = test: Cell viability by annexin V/PI flow cytometry in CLL cells
Procedure: Percent of live cells was determined by staining with annexin V-fluorescein isothiocyanate and propidium iodide (PI). After exposure to agents, cells were washed with PBS and stained in 1× binding buffer (BD Biosciences, Franklin Lakes, N.J.). Cell viability was assessed by flow cytometry using a Beckman-Coulter Cytomics FC500 cytometer. Data were analyzed with the CXP Cytometer software package (Beckman-Coulter). A total of 10,000 cells were counted for each sample. The cells treated with flavopiridol were washed after 4 hours with PBS and re-suspended in regular growth medium (RPMI 1640) supplemented with 10% human serum and antibiotics for the remainder of the incubation time. […] For all the other conditions, cells were incubated with the respective drugs for 24 hours continuously.
CLL cells were suspended in buffer V (Amaxa kit, Lonza, Allendale, N.J.) and nucleofection was performed using program U016 (5 μg siRNA and 1×10^7 cells per cuvette). Scrambled siRNA and siRNAs to ATG5, ATG7 and ASK1 were purchased from Sigma-Aldrich. Cells were immediately suspended in warm, complete media supplemented with 10% human serum, and RNA was extracted after 36 hours. For CDK1 and CDK5, siRNAs were purchased from Applied Biosystems (Carlsbad, Calif.). Transfections were done using 5 nM siRNA per cuvette, and RNA was harvested at 48 hours.

ATF6 = ATF6 nuclear translocation by confocal fluorescence microscopy in CLL cells; type: cell-based, human; conditions: CLL patient cells, flavopiridol 2 μM or thapsigargin 1 μM, 4 hours
Procedure: After 4 hours exposure to agents, cells were washed in phosphate-buffered saline (PBS) and made adherent on a microscope slide by centrifugation in a Cytospin3 (Shandon) centrifuge. Immediately after cytospin, cells were fixed in cold acetone. Next, the cells were incubated in blocking solution (2% bovine serum albumin in PBS) and stained for LC3 (Cell Signaling, Boston, Mass.)) and Lamp2 (Santa Cruz Biotechnology, Santa Cruz, Calif.) by incubating separately with the respective primary antibodies over night, in 4° C., followed by incubation with fluorescent secondary antibodies (Invitrogen, Carlsbad, Calif.): Alexa fluor 594 (red) anti-rabbit for LC3 and Alexa fluor 488 (green) anti-mouse for Lamp2. Nuclei were stained blue with DAPI (Vector Laboratories, Burlingame, Calif.). Images were taken using a 60× objective and 4× digital zoom with Olympus Fluoview 1000 Laser Scanning Confocal microscope at the Ohio State University Campus Microscopy and Imaging Facility. ATF6 antibody was purchased from LifeSpan Biosciences (Seattle, Wash.) and Nrf2 was from Santa Cruz Biotechnology (Santa Cruz, Calif.). Nuclei were evaluated for ATF6 and Nrf2 using confocal microscopy to collect Z stacks, approximately 45 slices per cell, 0.2 μm each.

[2] = tested on: cell lines 293T, RAW and 697, normal B cells; test: XBP1 splicing PCR in normal B cells and cell lines; type: cell-based
Procedure: (§2) RNA was extracted using TRIzol reagent (Invitrogen, Carlsbad, Calif.) and purified using QIAGEN RNeasy columns (Qiagen, Valencia, Calif.). cDNA was prepared with SuperScript First-Strand Synthesis System (Invitrogen). Real-time PCR was performed using primers purchased from Applied Biosystems. Detection was performed using an ABI Prism 7700 sequence detection system (Applied Biosystems). Average relative expression (treatment compared with vehicle) was normalized to the internal control gene CD52. Primers to detect spliced XBP1 were designed using Primer 3 software and purchased from IDT. Samples were analyzed on 10% acrylamide gels.

XBP1, IRE1, GRP78 = test: Real-time RT-PCR of ER stress genes in CLL cells in vitro; type: cell-based, human; conditions: CLL cells n=5; flavopiridol 2 μM, thapsigargin 1 μM, tunicamycin 3 μg/ml; CD52 control gene
Procedure: as §2

p62 = p62 immunoblot in CLL cells treated in vitro; type: cell-based, human; conditions: flavopiridol 2 μM, 4 hours
Procedure: as §1

CLL cells [3] = test: LC3 confocal immunofluorescence (autophagosome formation) in CLL cells in vitro; type: cell-based, human; conditions: for LC3 aggregation / LC3 fluorescence (autophagosome formation) versus vehicle: CLL patient cells, 4 hours, rapamycin 5 μM, thapsigargin 1 μM, F-ara-A 5 μM, chlorambucil 20 μM, CAL-101 1 μM, rituximab 10 μg/ml, flavopiridol 2 μM, CQ 0.5 μM
Procedure: After 4 hours exposure to agents, cells were washed in phosphate-buffered saline (PBS) and made adherent on a microscope slide by centrifugation in a Cytospin3 (Shandon) centrifuge. Immediately after cytospin, cells were fixed in cold acetone. […] Nuclei were stained blue with DAPI (Vector Laboratories, Burlingame, Calif.). Images were taken using a 60× objective and 4× digital zoom with Olympus Fluoview 1000 Laser Scanning Confocal microscope at the Ohio State University Campus Microscopy and Imaging Facility. ATF6 antibody was purchased from LifeSpan Biosciences (Seattle, Wash.) and Nrf2 was from Santa Cruz Biotechnology (Santa Cruz, Calif.). Nuclei were evaluated for ATF6 and Nrf2 using confocal microscopy to collect Z stacks, approximately 45 slices per cell, 0.2 μm each.
LC3 intensity and number of dots per cell were both assessed in the fluorescence images. Integrated intensity was measured using Metamorph v.7.0. To calculate the number of “dots” (local extreme point in pixel-intensity profile at which a number of high-intensity pixels form a cluster), a Gaussian filter was first applied to reduce noise. Cells were enumerated electronically by an improved watershed-based algorithm. To quantify co-localization, two binary nuclei images—red (R) and green (G)—are obtained. The correlation value is calculated as the number of white pixels of (R&G) divided by the number of pixels of (RIG), where (R&G) is the intersection of R and G, and (RIG) is the union of R and G. The program used for cell counts and measurement of correlation index is based on MatLab software (Natick, Mass.) and it was developed by members of Department of Biomedical Informatics, The Ohio State University.

PERK = PERK activity by eIF2α phosphorylation immunoblot in CLL cells; type: cell-based, human
Procedure: as §1

CN1CC[C@H](c2c(O)cc(O)c3c(=O)cc(-c4ccccc4Cl)oc23)[C@H](O)C1 [flavopiridol, (cis-5,7-dihydroxy-2-(2-chlorophenyl)-8-[4-(3-hydroxy-1-methyl)-piperidin-yl]-1-benzopyran-4-one)hydrochloride]
eIF2α phosphorylation (Jurkat cell line): dramatic EIF2α phosphorylation | effect of ASK1 siRNA vs scrambled siRNA on sensitivity to the agent (CLL cells [1]; CLL cells n=5, flavopiridol 2 μM): significantly (P=0.005) more resistant | effect of chloroquine addition on cell death caused by the agent (CLL cells [1]; CLL cells, annexin/PI negative, CQ 0.5 μM, flavopiridol 4 hours then washed, CQ continuous 24 hours): significantly enhances the cytotoxicity | effect of ATG5/ATG7 siRNA vs scrambled siRNA on cytotoxicity of the agent (CLL cells [1]; CLL cells, viability at 24 hours, thapsigargin 1 μM, flavopiridol 2 μM): significantly increased | ATF6 nuclear translocation (ATF6): increased nuclear translocation | XBP1 splicing [2]: XBP1 splicing is detected | expression of ER stress genes XBP1, IRE1 and GRP78 (XBP1, IRE1, GRP78): significant, time-dependent increase in expression of ER stress genes XBP1, IRE1 and GRP78 | p62 protein level (p62): p62 levels are decreased | LC3 fluorescence time course, flavopiridol vs vehicle (CLL cells [3]; CLL cells n=3, flavopiridol washed out after 4 hours): significant (P=0.001) at 3, 4 and 8 hours, and decreased to levels comparable to vehicle alone at 12 and 24 hours | LC3 aggregation / LC3 fluorescence (autophagosome formation) versus vehicle (CLL cells [3]): formation of autophagosomes was observed | LC3 aggregation / LC3 fluorescence (autophagosome formation) versus vehicle (CLL cells [3]; listed as Flavopiridol): comparable to the increase seen with rapamycin | PERK activity (phosphorylation of eIF2α) (PERK): minimally active
